Where a name gives a salt, the structure may show the parent alone. Read-outs that look alike come from different tables or passages of the source. Where only a bound is given, the exact number is not on record here.

In one assay the target is TGFBR1 (ALK5) (Homo sapiens (Human), UniProt P36897). As to the kind of experiment: LanthaScreen Eu Kinase Binding Assay TGFBR1 (ALK5) (ThermoFisher SelectScreen). The note with it: read-out: TβRI (ALK5) Binding IC50. The method, then: (§1) Exemplified compounds were confirmed to inhibit ALK5 activity in enzyme and cellular assays in the following assay systems conducted by ThermoFisher in Madison, Wis. according to their commercially available protocols.
ThermoFisher SelectScreen™ Biochemical Kinase Profiling Service, LanthaScreen™Eu Kinase Binding Assay TGFBR1 (ALK5)
Exemplified compounds were screened in 1% DMSO (final concentration) by 3-fold serial dilutions from 10,000 nM to 0.316 nM to produce an IC50 or at single concentrations of 10,000, 1000 and 100 nM according to the following protocol. To low volume, white 384-well plates (Greiner Cat #784207) add 160 nL 100× compound in 100% DMSO, 3.84 uL kinase buffer (50 mM HEPES, pH 7.5, 0.01% BRIJ-35, 10 mM MgCl2, 1 mM EGTA), 8 uL 2× kinase/antibody mixture in kinase buffer (final ALK5 concentration of 5 nM; final Eu-anti-GST antibody concentration of 2 nM), 4 uL 4× Tracer #178 in kinase buffer (final concentration of 5 nM). Gently shake the plates for 30 seconds and incubate at room temperature for 1 hour before reading fluorescence on a plate reader. Percent inhibition was determined compared to DMSO only control (maximal ALK5 tracer binding) and sigmoidal dose response curve fit yielded IC50 values as indicated in Table 2.
(In general: In TR-FRET formats the signal depends on donor and acceptor labels being close together.)

Assay [1] concerns TGF-beta 1 stimulated SBE-b1a HEK 293T cells. Briefly: GeneBLAzer beta-lactamase reporter, TGF-beta 1 stimulated SBE-b1a HEK 293T cell-based assay (ThermoFisher SelectScreen). The note with it: TGF-beta 1 0.03 nM, 5 hours, inhibitor 10,000 nM to 0.316 nM, sigmoidal dose response curve fit, read-out: Cells (SBE_HEK293T) IC50. The method, then:
as §1
ThermoFisher SelectScreen™ Cell-Based Pathway Profiling Service GeneBLAzer Beta-Lactamase (b1a) Reporter Technology—TGF-Beta 1 Stimulated SBE-b1a HEK 293T Cell-Based Assay
SBE-b1a HEK 293T cells were thawed and re-suspended in Assay Media (OPTI-MEM, 0.5% dialyzed FBS, 0.1 mM NEAA, 1 mM Sodium Pyruvate, 100 U/mL/100 μg/mL Pen/Strep) to a concentration of 625,000 cells/mL. 32 μL of cell suspension (20,000 cells) was added to each well of a 384-well Poly-D-Lysine assay plate. Cells in Assay Media were incubated for 16-24 hours in the plate at 37° C./5% CO2 in a humidified incubator. 4 μL of a 10× serial dilution of ALK5 inhibitors (10x=100,000-3.16 nM) was added to appropriate wells of the plate and pre-incubated at 37° C./5% CO2 in a humidified incubator with cells for 30 minutes. Final concentration of inhibitor ranged from 10,000 nM to 0.316 nM. 4 μL of 10× TGF-beta 1 (final concentration of 0.03 nM) was added to wells containing the inhibitors. The plate was incubated for 5 hours at 37° C./5% CO2 in a humidified incubator. 8 μL of 1 μM Substrate Loading Solution was added to each well and the plate was incubated for 2 hours at room temperature before being read on a fluorescence plate reader. Percent inhibition was determined compared to DMSO only control (maximal TGF-beta 1 stimulation) and sigmoidal dose response curve fit yielded IC50 values as indicated in Table 2.

Setting [2] is: 3-fold serial dilutions 10,000 nM to 0.316 nM, ALK5 5 nM, Tracer #178 5 nM, sigmoidal dose response curve fit.
The mark [3] stands for this setting: compounds marked with an asterisk: evaluated at three concentrations, IC50 depicted as less than the lowest concentration producing >50% inhibition.

Chain of TGFBR1 (ALK5) (P36897 34-503): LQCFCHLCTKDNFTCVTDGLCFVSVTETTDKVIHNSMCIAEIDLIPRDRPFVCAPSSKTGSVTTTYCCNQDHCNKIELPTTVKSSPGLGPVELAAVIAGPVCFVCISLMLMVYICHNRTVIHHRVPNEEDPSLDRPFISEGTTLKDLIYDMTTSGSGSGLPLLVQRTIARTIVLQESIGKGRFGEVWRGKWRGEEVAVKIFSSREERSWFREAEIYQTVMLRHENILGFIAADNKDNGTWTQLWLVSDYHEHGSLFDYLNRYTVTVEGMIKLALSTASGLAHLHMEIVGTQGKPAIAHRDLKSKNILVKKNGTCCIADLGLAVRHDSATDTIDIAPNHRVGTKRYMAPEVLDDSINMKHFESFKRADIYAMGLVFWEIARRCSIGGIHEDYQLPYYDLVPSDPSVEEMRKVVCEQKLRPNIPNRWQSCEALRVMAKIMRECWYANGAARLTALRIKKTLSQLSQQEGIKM

What is called IC50 is the concentration that gives 50% inhibition. As for `CC(C)n1ccc(-c2nc(CNc3ccccc3)[nH]c2-c2ccc3ncnn3c2)n1` [Compound 10, N-((5-([1,2,4]triazolo[1,5-a]pyridin-6-yl)-4-(1-isopropyl-1H-pyrazol-3-yl)-1H-imidazol-2-yl)methyl)aniline hydrochloride], the IC50 on TGFBR1 (ALK5) (setting [2]) was 264 nM; in assay [1] (Homo sapiens, HEK-293T), 2660 nM. Consider `CC(C)n1ccc(-c2nc(CNc3cc(F)cc(C#N)c3)[nH]c2-c2ccc3nccnc3c2)n1` [Compound 50], for which the IC50 in assay [1] (Homo sapiens, HEK-293T) came out at 1070 nM.

Take `Cn1ccc(-c2nc(CNc3ccc(Cl)cc3)[nH]c2-c2ccc3ncnn3c2)n1` [Compound 12, N-((5-([1,2,4]triazolo[1,5-a]pyridin-6-yl)-4-(1-methyl-1H-pyrazol-3-yl)-1H-imidazol-2-yl)methyl)-4-chloroaniline hydrochloride]: the IC50 in assay [1] (Homo sapiens, HEK-293T) was greater than 10000 nM. Regarding `CC(C)n1ccc(-c2nc(CNc3cccc(C(N)=O)c3)[nH]c2-c2ccc3ncnn3c2)n1` [Compound 29, 3-(((5-([1,2,4]triazolo[1,5-a]pyridin-6-yl)-4-(1-isopropyl-1H-pyrazol-3-yl)-1H-imidazol-2-yl)methyl)amino)benzamide], the half-inhibitory concentration (IC50) at TGFBR1 (ALK5) (setting [3]) was less than 100 nM; in assay [1] (Homo sapiens, HEK-293T), 4620 nM. As to `CC(C)n1ccc(-c2nc(CNc3ccc(Cl)c(Cl)c3)[nH]c2-c2ccc3nccnc3c2)n1` [Compound 51], the IC50 on TGFBR1 (ALK5) (setting [2]) was 260 nM.

As to `CC(C)n1ccc(-c2nc(CNc3cccc(Cl)c3)[nH]c2-c2ccc3nccnc3c2)n1` [Compound 54], the IC50 on TGFBR1 (ALK5) (setting [2]) stood at 31.2 nM; in assay [1] (Homo sapiens, HEK-293T), 211 nM. For the compound `CC(C)n1ccc(-c2nc(CNc3cc(F)cc(F)c3)[nH]c2-c2ccc3nccnc3c2)n1` [Compound 39], in assay [1] (Homo sapiens, HEK-293T), the IC50 worked out at 53.6 nM. Turning to `CC(C)n1ccc(-c2nc(-c3ccc(C(N)=O)cc3)[nH]c2-c2ccc3nccnc3c2)n1` [Compound 59], the IC50 on TGFBR1 (ALK5) (setting [2]) turned out to be 889 nM. Turning to `CC(C)n1ccc(-c2nc(CNc3cccc(F)c3)[nH]c2-c2ccc3nccnc3c2)n1` [Compound 22, 3-fluoro-N-((4-(1-isopropyl-1H-pyrazol-3-yl)-5-(quinoxalin-6-yl)-1H-imidazol-2-yl)methyl)aniline hydrochloride], the IC50 is less than 100 nM at TGFBR1 (ALK5) (setting [3]) and 1090 nM in assay [1] (Homo sapiens, HEK-293T). `CC(C)n1ccc(-c2nc(CNc3cccc(-n4cccn4)c3)[nH]c2-c2ccc3nccnc3c2)n1` [Compound 40]: the IC50 at TGFBR1 (ALK5) (setting [3]) is less than 100 nM; in assay [1] (Homo sapiens, HEK-293T), 1050 nM.

Take `Cn1ccc(-c2nc[nH]c2-c2ccc3nccnc3c2)n1` [Compound 56]: the IC50 on TGFBR1 (ALK5) (setting [2]) is 43.6 nM; in assay [1] (Homo sapiens, HEK-293T), 1050 nM.

For `NC(=O)c1ccc(-c2nc(-c3ccn(C(F)F)n3)c(-c3ccc4ncsc4c3)[nH]2)cc1` [Compound 61], the IC50 was found to be 7.55 nM at TGFBR1 (ALK5) (setting [2]) and 65.3 nM in assay [1] (Homo sapiens, HEK-293T).

`CC(C)n1ccc(-c2nc(CNc3cccc(F)c3)[nH]c2-c2ccc3ncc(C#N)n3n2)n1` [Compound 27]: the IC50 on TGFBR1 (ALK5) (setting [3]) is less than 100 nM. As for `CC(C)n1ccc(-c2nc(CNc3cc(F)cc(F)c3)[nH]c2-c2ccc3ncnn3c2)n1` [Compound 36, N-((5-([1,2,4]triazolo[1,5-a]pyridin-6-yl)-4-(1-isopropyl-1H-pyrazol-3-yl)-1H-imidazol-2-yl)methyl)-3,5-difluoroaniline hydrochloride], the concentration for half-maximal inhibition (IC50) was 103 nM at TGFBR1 (ALK5) (setting [2]) and 507 nM in assay [1] (Homo sapiens, HEK-293T).

For `CC(C)n1ccc(-c2nc(CNc3cccc(F)c3)[nH]c2-c2ccc3ncc(C(N)=O)n3n2)n1` [Compound 34], the IC50 was 49 nM at TGFBR1 (ALK5) (setting [2]) and 379 nM in assay [1] (Homo sapiens, HEK-293T). Turning to `N#Cc1ccc(-c2nc(-c3ccn(C(F)F)n3)c(-c3ccc4ncsc4c3)[nH]2)cc1` [Compound 60], the IC50 on TGFBR1 (ALK5) (setting [2]) was found to be 71.7 nM. `Cn1ccc(-c2nc(CNc3ccccc3F)[nH]c2-c2ccc3ncnn3c2)n1` [Compound 2, N-((5-([1,2,4]triazolo[1,5-a]pyridin-6-yl)-4-(1-methyl-1H-pyrazol-3-yl)-1H-imidazol-2-yl)methyl)-2-fluoroaniline hydrochloride]: the half-maximal inhibitory concentration (IC50) on TGFBR1 (ALK5) (setting [2]) is 1370 nM; in assay [1] (Homo sapiens, HEK-293T), greater than 10000 nM. Turning to `Cn1ccc(-c2nc(-c3ccc(C#N)cc3)[nH]c2-c2ccc3nccnc3c2)n1` [Compound 42], at TGFBR1 (ALK5) (setting [3]), the 50% inhibitory concentration (IC50) is less than 1000 nM. Consider `N#Cc1cccc(NCc2nc(-c3ccn(C(F)F)n3)c(-c3ccc4nccnc4c3)[nH]2)c1` [Compound 47], for which the IC50 on TGFBR1 (ALK5) (setting [2]) is 6.6 nM; in assay [1] (Homo sapiens, HEK-293T) it was 19.5 nM. For `Cc1nc(-c2ccn(C)n2)c(-c2ccc3ncsc3c2)[nH]1` [Compound 44, 6-(2-methyl-4-(1-methyl-1H-pyrazol-3-yl)-1H-imidazol-5-yl)benzo[d]thiazole] the same measures were 6.66 nM and 37.4 nM. With `Cn1ccc(-c2nc(CNc3ccccc3F)[nH]c2-c2ccc3ncccc3c2)n1` [Compound 31, 2-fluoro-N-((4-(1-methyl-1H-pyrazol-3-yl)-5-(quinolin-6-yl)-1H-imidazol-2-yl)methyl)aniline hydrochloride], the IC50 at TGFBR1 (ALK5) (setting [3]) is less than 1000 nM; in assay [1] (Homo sapiens, HEK-293T) it was 8930 nM. In the case of `CC(C)n1ccc(-c2nc(CNc3ccc(F)c(F)c3)[nH]c2-c2ccc3nccnc3c2)n1` [Compound 48], the IC50 on TGFBR1 (ALK5) (setting [3]) is less than 100 nM.

Regarding `CNC(=O)c1ccc(-c2nc(-c3ccn(C)n3)c(-c3ccc4ncsc4c3)[nH]2)cc1` [Compound 64, 4-(5-(benzo[d]thiazol-6-yl)-4-(1-methyl-1H-pyrazol-3-yl)-1H-imidazol-2-yl)-N-methylbenzamide], the IC50 turned out to be 44.6 nM on TGFBR1 (ALK5) (setting [2]) and 632 nM in assay [1] (Homo sapiens, HEK-293T). In the same order, the values of `CC(C)n1ccc(-c2nc(CNc3cccc(C#N)c3)[nH]c2-c2ccc3nccnc3c2)n1` [Compound 41] are 33 nM and 77.5 nM. In the same order, the values of `CC(C)n1ccc(-c2nc(CNc3ccccc3F)[nH]c2-c2ccc3nccnc3c2)n1` [Compound 57] are 128 nM and 2190 nM.

Turning to `Cn1ccc(-c2nc(CNc3cccc(F)c3)[nH]c2-c2ccc3ncccc3c2)n1` [Compound 24], the IC50 was less than 200 nM at TGFBR1 (ALK5) (setting [3]) and 1930 nM in assay [1] (Homo sapiens, HEK-293T). For `Cn1ccc(-c2nc(CNc3cccc(F)c3)[nH]c2-c2ccc3ncnn3c2)n1` [Compound 6, N-((5-([1,2,4]triazolo[1,5-a]pyridin-6-yl)-4-(1-methyl-1H-pyrazol-3-yl)-1H-imidazol-2-yl)methyl)-3-fluoroaniline hydrochloride], the 50% inhibitory concentration (IC50) at TGFBR1 (ALK5) (setting [2]) amounted to 354 nM; in assay [1] (Homo sapiens, HEK-293T), 3870 nM. On to `CC(C)n1ccc(-c2nc(CNc3ccc(Cl)c(F)c3)[nH]c2-c2ccc3nccnc3c2)n1` [Compound 49], for which, on TGFBR1 (ALK5) (setting [3]), the 50% inhibitory concentration (IC50) is less than 1000 nM. As to `CC(C)n1ccc(-c2nc(CNc3cccc(F)c3)[nH]c2-c2ccc3ncccc3c2)n1` [Compound 26, 3-fluoro-N-((4-(1-isopropyl-1H-pyrazol-3-yl)-5-(quinolin-6-yl)-1H-imidazol-2-yl)methyl)aniline hydrochloride], the 50% inhibitory concentration (IC50) on TGFBR1 (ALK5) (setting [3]) is less than 100 nM. Regarding `CC(C)n1ccc(-c2nc[nH]c2-c2ccc3nccnc3c2)n1` [Compound 53, 6-(4-(1-isopropyl-1H-pyrazol-3-yl)-1H-imidazol-5-yl)quinoxaline hydrochloride], the IC50 on TGFBR1 (ALK5) (setting [3]) is less than 1000 nM.

As for `Fc1cc(F)cc(NCc2nc(-c3ccn(C4CC4)n3)c(-c3ccc4ncnn4c3)[nH]2)c1` [Compound 69], on TGFBR1 (ALK5) (setting [2]), the IC50 worked out at 3 nM. For `Cn1ccc(-c2nc(-c3ccc(C(N)=O)cc3)[nH]c2-c2ccc3c(c2)OCO3)n1` [Compound 67], the IC50 at TGFBR1 (ALK5) (setting [2]) worked out at 50 nM. “N-((5-([1,2,4]triazolo[1,5-a]pyridin-6-yl)-4-(1-methyl-1H-pyrazol-3-yl)-1H-imidazol-2-yl)methyl)-4-chloroaniline hydrochloride [Compound 14]”: the half-inhibitory concentration (IC50) in assay [1] is greater than 10000 nM.

The values above are taken from patent publication US11124509B2, “Tri-substituted imidazoles for the inhibition of TGF beta and methods of treatment” (CLAVIUS PHARMACEUTICALS, LLC, priority 2017, dated 2021).
